# Key:
# [1] = test system: CT-1.1 tagged Her2; test: 293 Expi transient co-transfection of FGE form and CT tagged antibody, conversion by mass-spectrometry; assay type: cell-based
# Protocol: A 293 Expi transient co-transfection system (Life Technologies) was used for producing antibodies having a formylglycine residue at a selected site. The system produced high antibody titers (100-500 mg/L) with variable (10-95%) conversion. […] Expi 293F that were treated with or without 50 μM copper sulfate prior to transfection were transiently co-transfected in three independent experiments with expression plasmids for full-length human FGE with an N-terminal KDEL (SEQ ID NO:7) amino acid sequence (+KDEL) and CT tagged antibody at a ratio of 3:1 antibody:FGE DNA. The culture was harvested at 5-6 days post transfection, titer assessed by ELISA, and the protein was purified and conversion was measured by mass-spectrometry.
# Expi 293F cells that were treated with or without 50 μM copper sulfate prior to transfection were transiently co-transfected with expression plasmids for various forms of human FGE (+KDEL, WT, myc-His) and CT tagged antibody at a ratio of 3:1 antibody:FGE DNA. The culture was harvested at 5 days post transfection, titer assessed by ELISA, the protein was purified and conversion was measured by mass-spectrometry.
# [2] = test system: CHO cells
# [3] = test system: SQR
# Protocol: A Western blotting was performed on lysates from cells treated with Cu^2+ or not treated with Cu^2+, using antibodies against SQR to determine whether Cu^2+ increased the levels of SQR. […] Experiments were also performed to test whether overexpression of SQR in Expi cells could be a substitute for Cu^2+ in increasing conversion.
compound,measurement,setting,value
"O=S(=O)([O-])[O-].[Cu+2] [Cu^2+, copper(II) sulfate]",effect on conversion,[1],enhances conversion
same,cell viability,[2],does not significantly change
same,levels of SQR,[3],No significant difference

# Source: patent US11655492B2, “Activated formylglycine-generating enzymes and methods of producing and using the same” (R.P. Scherer Technologies, LLC, priority 2015, dated 2023)
